Measured values reported in patent US20140065122A1, “Method for Removing a Microorganism Biofilm” (priority 2010, published 2014).

Tests used:
[1] = test system: Staphylococcus aureus RN4220 GFP biofilm; experiment: Examples 4 and 5: log reduction of Staphylococcus aureus biofilm after bacterial pretreatment followed by benzalkonium chloride; format: cell-based; conditions: Example 5; treatment with C14 benzalkonium chloride after pretreatment with the named strain(s)
Description: The target biofilms of Staphylococcus aureus RN4220 GFP cultivated in microplates and bacilli cultures used are obtained according to the method previously described for Bacillus thuringiensis 407.
(§1) On a microplate containing 24-hour biofilms of Staphylococcus aureus RN4220 GFP having a thickness greater than 30 μm, one carefully removes 250 μL of supernatant from each well. 250 μL of culture medium (control) or suspension of: • Bt • BtΔfla • Bl • or Bt+Bl at equal concentrations, calibrated at 10^8 cells/mL are then added to each well.
The Staphylococcus aureus biofilms in the presence or not of bacteria are then incubated at 37° C. for 4 hours to allow infiltration of swimming bacteria. The supernatants are eliminated prior to placement into contact with the biocide.
These target biofilms are then treated by adding to the wells 200 μL of C14 benzalkonium chloride (BAC, Fluka, Buchs, Switzerland) at a concentration of 750 ppm, or 200 μl of […] sodium chloride (NaCl) (“non-treated” biofilm. […]
The surviving S. aureus are counted on TSA agar after serialized dilutions in 150-mM NaCI and incubation for 24 hours at 37° C.
The log 10 reductions of the S. aureus bacteria are calculated by comparing the relationship of the surviving ones in the disinfected biofilms to the population of non-treated biofilms. […]

[2] = test system: Staphylococcus aureus RN4220 GFP biofilm; experiment: Example 2: Staphylococcus aureus biofilm treated with lysostaphin with or without pretreatment by swimming Bacillus thuringiensis 407, residual biovolume; format: cell-based
Description: The strains of bacteria used for these experiments correspond to strains of Staphylococcus aureus RN4220 GFP and Bacillus thuringiensis 407 described in Table I.
The target biofilms of Staphylococcus aureus RN4220 GFP cultivated in microplates and the Bacillus thuringiensis 407 cultures used are obtained according to the method described previously.
as §1, with “of more” for “greater”, “of Bacillus thuringiensis 407” for “of: • Bt • BtΔfla • Bl • or Bt+Bl at equal concentrations,”, “into” for “to”
The Staphylococcus aureus biofilms in the presence or not of swimming bacteria are then incubated at 37° C. for 4 hours.
These target biofilms, sensitized or not for 4 hours by a cocktail of swimming bacteria, are then treated by adding into the wells 250 μL of lysostaphin in a concentration range of 0 to 0.5 μg/ml.
The same experimental device as the one described in the first experiment was used to quantify the effectiveness of treatment (comparison between the residual biovolume of the target biofilm during activity of the lysostaphin with or without pretreatment and a cocktail of swimming bacteria).

Substance	Log reduction (+/−0.2) [1]	eradication of the target biofilm by the antimicrobial compound alone ([2]; lysostaphin concentration <0.5 μg/ml, without pretreatment)	effectiveness on the target biofilm after pretreatment with a cocktail of swimming bacteria ([2]; pretreatment Bacillus thuringiensis 407 10^8 cells/mL 4 hours, lysostaphin 0 to 0.5 μg/ml, P<0.05)
C14 benzalkonium chloride	−0.9 log	–	–
lysostaphin	–	does not allow eradication	improved
